Laboratory results from article PMC11298173 (Drug Design, Development and Therapy, 2024).

Tests used:
[1] = NEF-105 study: budesonide plasma pharmacokinetics; assay type: in vivo; conditions: human, po
patients with IgAN = conditions: TESTING trial, at 3 months, diminishing over time; cited from earlier work

| half-life [1] [h] | SMILES | Effect on proteinuria vs placebo (patients with IgAN) |
| --- | --- | --- |
| ~5 | CCCC1O[C@@H]2C[C@H]3[C@@H]4CCC5=CC(=O)C=C[C@]5(C)[C@H]4[C@@H](O)C[C@]3(C)[C@]2(C(=O)CO)O1 (some centres unmarked) [budesonide] |  |
|  | C[C@H]1C[C@@H]2[C@H]([C@@H](O)C[C@@]3(C)[C@H]2CC[C@]3(O)C(=O)CO)[C@@]2(C)C=CC(=O)C=C12 [methylprednisolone] | substantial effect |
